The test system of test [1] is rat neonatal cardiomyocytes. Kind of test: Cardiomyocyte death induced by ischemia and reperfusion. Type of test: cell-based. The following applies: in mixture with PEG, FIG. 14. How it is done:
(§1) Cardiomyocytes were prepared from hearts of day-old Sprague Dawley rats by trypsinization and mechanical disaggregation (Simpson, (1985)) Circ. Res. 56:884-894. The cells were resuspended in MEM, 1×MEM vitamins (Gibco), 5% fetal bovine serum and 50 U/ml penicillin-G and pre-plated for 30 minutes to reduce contamination of non-myocytes. The non-adherent cardiac myocytes were separated and seeded in 2 ml in 35 mm dishes at a density of 3.5×10^5 viable cells per ml. The cells were allowed to adhere for 16-24 hours in a 37° C./5% CO2 humidified incubator.
For serum deprivation, the medium was replaced with fresh serum-free RPMI, whereas serum/glucose deprivation was performed using glucose-free RPMI. The induction of cell death by adriamycin or C2-ceramide was accomplished by the addition of the agent prepared in serum-free RPMI. As a model of ischemia, cultures in serum and glucose free RPMI were placed in an airtight chamber and the latter was continuously perfused with oxygen-free gas overlay of 95% N2/5% CO2 for 8 hours at 37° C. […]
(§2) Because cardiomyocytes are terminally differentiated non-dividing cells, viability was determined by measurement of the decrease in the relative number of adherent cells. […] Adherent cardiomyocytes were collected from culture dishes using 0.25% Trypsin/0.05% EDTA and counted on Coulter Counter ZM and Coulter Channelyzer 256.

Test [2] deals with C3H/10T1/2 cells. Description: Anti-apoptotic activity assay: serum deprivation of C3H/10T1/2 cells. It is filed as cell-based.
In test [3] the test system is rat neonatal cardiomyocytes. Kind of test: Cardiomyocyte death induced by serum/glucose deprivation. Type of test: cell-based. The following applies: serum/glucose deprivation. The procedure:
as §1
For serum deprivation, the medium was replaced with fresh serum-free RPMI, whereas serum/glucose deprivation was performed using glucose-free RPMI. The induction of cell death by adriamycin or C2-ceramide was accomplished by the addition of the agent prepared in serum-free RPMI. As a model of ischemia, cultures in serum and glucose free RPMI were placed in an airtight chamber and the latter was continuously perfused with oxygen-free gas overlay of 95% N2/5% CO2 for 8 hours at 37° C. To model reperfusion of the ischemic cells, 10% fetal bovine serum, 2 g/L of glucose were added and the cultures were returned to a normal oxygen gas overlay (37° C./5% CO2) in a humidified incubator for 16 hours.
T investigate effects of LPA, LPA plus other phospholipids, PEG or their mixtures on cell death, various combinations of these components were added to cells in serum free medium at the beginning of cytotoxic treatment.
as §2

The test system of test [4] is C3H/10T1/2 cells. Description: Effect of proteins on anti-apoptotic activity of soy LPA, C3H/10T1/2 cell assay. It is filed as cell-based. How it is done: Soy derived LPA (soy-LPA) (Avanti® Polar Lipids, Inc., Alabaster, Ala.) was stored in an organic solution and was dried immediately prior to assay using a Speed Vac (Savant Instruments, Hicksville, N.Y.). Tested proteins were resuspended at 10_mg/mL in a bicarbonate buffered saline/EDTA solution (50_mM NH4HCO3, […] NaCl, 250_(M EDTA) prior to being added to dried soy-LPA at a 1:10_soy-LPA to protein (weight:weight) ratio. The mixture was then sonicated for 5 minutes using a high power 80 Watt sonication bath (Laboratory Supplies Co., Hicksville, N.Y.). Following sonication, concentrated LPA/protein mixtures were left standing for 15 minutes at room temperature prior to dilution in cell culture assay media.
The effect of various proteins on the ability of LPA to protect serum-starved cells from apoptotic death was measured using the C3H/10T1/2 cell assay, performed as described in Example 2, above. Log phase cells were seeded in 60 mm Petri dishes at 175-350 cells per cm^2 and maintained in Basal Medium Eagle (BME) supplemented with 10% fetal calf serum (Hyclone, Logan, Utah). At time zero, serum containing media was replaced with sterile filtered BME containing the LPA/protein mixture to be tested. After 24 hours of treatment, serum deprived release (SDR) cells (the apoptotic cell population) and adherent (ADH) cells were separated and counted using an electronic cell counter (Coulter Corporation, Hialea, Fla.). SDR cells were counted with the lower threshold setting at 6.3_(m and were defined as the apoptotic cells dying in response to cultivation in serum-free-media. Approximately 95% of the SDR cells are confirmed to be apoptotic as previously shown by size, ultrastructure and DNA fragmentation analysis. Adherent cells were removed by treatment with a Hanks' balanced salt solution containing 0.05% trypsin and 0.53_mM EDTA and were counted with the lower threshold setting at 11.01_(m. All samples were tested in triplicate and serum-deprived controls (BME only) were assayed at both the beginning and end of each experiment.

A short description of test [5]: Electrophoresis radiobinding assay (native polyacrylamide gel). The following applies: FIG. 9 and other experiments. It is filed as binding. The procedure: Electrophoresis radiobinding assay. Proteins were analyzed on native polyacrylamide gels following incubation with ^3H-labeled 18:1-LPA. ^3H-labeled lysophosphatidic acid (1-oleyl) (DuPont NEN Products, Boston, Mass.) was added to tested proteins at 1 nM labeled 18:1-LPA/45_(g protein. Mixtures were incubated at a bicarbonate buffered saline/EDTA solution at 37° C. for 60 minutes. Incubated samples were mixed with native gel sample buffer (312_mM Tris pH 6.8, 50% glycerol, 0.05% bromophenol blue) and loaded entirely onto an 8% discontinuous native polyacrylamide gel. Following electrophoresis, proteins were fixed into the gels using an aqueous solution consisting of glacial acetic acid, 10% (vol/vol) and methan 130% (vol./vol.) solution. Fixed gels were then incubated for 60 minutes in autoradiography enhancer (EN^3HANCE, DuPont NEN Products, Boston, Mass.), and dried onto 3M chromatography paper (Whatman, Clifton, N.J.) and exposed to autoradiography film (X-Omat, Kodak, Rochester, N.Y.) for 72 hours at −80° C.

Test [6] can be described thus: Size shift assay (Superdex S75 column). It is filed as binding. The following applies: FIGS. 10A-10D. How it is done: Size shift assay. Size analysis of LPA both with and without protein was performed using a Superdex® S75 column (Pharmacia Biotech, Uppsala, Sweden). Soy LPA was combined in a chloroform solution with 0.5 Ci^3H-labeled 18:1-LPA (DuPont NEN Products, Boston, Mass.), dried under vacuum and resuspended by sonication in a buffered solution (50 mM ammonium bicarbonate, 154 mM sodium chloride, pH 8.0) in the presence or absence of test protein. The ammonium bicarbonate/sodium chloride solution was used as the mobile phase at a flow rate of 1 ml/min. One-minute fractions were collected for 30 minutes following sample injection. Fractions were counted in scintillant solution using a liquid scintillation counter (Beckman Instrument, Irvine, Calif.). Calibration was performed using a standard solution containing purified proteins (BioRad, Hercules, Calif.).

Where [7] appears, read: serum-deprived C3H/10T1/2 cells, 24 hours of treatment.

This is an account of results in patent publication US6949528B1, “Compositions containing lysophosphatidic acids which inhibit apoptosis and uses thereof” (priority 1998, dated 2005).

On to `CCCCCCCC/C=C\CCCCCCCC(=O)OCC(O)COP(=O)(O)O` (stereo not drawn) [18:1 LPA, oleoyl-lysophosphatidic acid, reference compound], for which, in test [1], the “protection against cardiomyocyte death” value is “equally protect”. Also, the cells protected result in the test with C3H/10T1/2 cells [2] (0.75 (g/ml added together with PS, FIG. 2)) is recorded as “approximately 75%”; with C3H/10T1/2 cells [2] (1:1 PG:PC particles with 23.5% by weight 18:1-LPA, FIG. 3) it was “about 57%”; in the test with C3H/10T1/2 cells [2] (5 (M, FIG. 5), medium alone 30%) it was “about 62%”; with C3H/10T1/2 cells [2] (5 (M, FIG. 6)), 75%; with C3H/10T1/2 cells [2] (15 (M, FIG. 6)), 80%; in the test with C3H/10T1/2 cells [2] (30% (by weight) mixture with 1:1 PA:PI, equivalent to Five Phospholipid Mixture at 10 (g/ml, FIG. 7), medium alone 38%), “about 82%”. Also, the cells protected result in the test on C3H/10T1/2 cells [2] (incorporated into phosphatidyl glycerol (PG), FIG. 2) was “up to 90%”. In addition, the efficacy entry with C3H/10T1/2 cells [2] (18:1-LPA/PG particles with 5 to 10 mol % PE-PEG (2000 MW), FIG. 2) was “reduced efficacy”. Further, in the test with C3H/10T1/2 cells [2] (23.5 weight percent with PG, FIG. 3), the cells saved entry is “about 50%”. The “cells protected from apoptosis” value with C3H/10T1/2 cells [2] (LPA equivalent to 10 (g/ml Five Phospholipid Mixture, 10% by weight with PG, FIG. 3)) is reported as “approximately 65%”. The anti-apoptotic activity result in the test with C3H/10T1/2 cells [2] (combined with BME (containing calcium) and filtered) is “appeared to be inhibited”; in the test on C3H/10T1/2 cells [2] (combined with BSA in BME (containing calcium)), “preserved the anti-apoptotic activity”. In the test with C3H/10T1/2 cells [2] (combined with polyethylene glycol or BSA), the protection from apoptosis result is reported as “protects serum-deprived 10T1/2 cells from apoptosis”. Also, the “protection from serum deprivation-induced cell death” value in the test on C3H/10T1/2 cells [2] (incorporated into PC, PC/PE-PEG, or PC/EtPC, FIG. 8) is on record as “effective in protecting cells from serum deprivation-induced cell death”. For the same compound, in the test on C3H/10T1/2 cells [2] (setting [7]), the “Concentration for Max Effect” value amounted to 10 µM. The “Maximum effect relative to 18:1 LPA” value with C3H/10T1/2 cells [2] (setting [7]) is reported as 100%. Also, in test [3], the “Concentration ranges for cardiomyocyte protection” value is 0.3 to 10 µM. The “Maximum effect relative to 18:1 LPA in cardiomyocytes” value in test [3] is 100%.
In the case of “Albumin (Fatty Acid Depleted): fatty acid depleted (FAD) bovine serum albumin (BSA)”, in the test on C3H/10T1/2 cells [4] (1:10 soy-LPA to protein (weight:weight), 24 hours serum deprivation), the “Protein +10 (g/mL Soy LPA, percent cells saved from apoptosis)” value is recorded as 58.7%. The “Increase with LPA” value in the test with C3H/10T1/2 cells [4] (difference protein + soy LPA minus protein alone) is reported as “+57.8%”. Further, the “Protein Alone (0.01%), percent cells saved from apoptosis” value in the test with C3H/10T1/2 cells [4] (protein without LPA, 24 hours serum deprivation) is 0.9%. The “binding to 18:1-LPA, detectable band” value in test [5] is listed as “bind to 18:1-LPA”. For the same compound, the “elution profile / binding of LPA to protein” value in test [6] is “most of the LPA was bound to BSA”.
